Data from US20090247559A1 (Exelixis, Inc., priority 2007, published 2009).
Read-outs that look alike come from different tables or passages of the source.

Legend:
CK2 = CK2 (Homo sapiens, UniProt P68400); test: CK2 inhibition, biochemical chemiluminescence holoenzyme assay (Kinase Glo, IC50 determination); details: Table 1 activity class; symbol given only if active; read-out: CK2 IC50 (Activity C)
Summary of the method: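 Holoenzyme CK2 assay; compounds pre-incubated with substrate and enzyme, then reacted 150 min at 24-27° C. Remaining ATP measured as luminescence with Kinase Glo, and IC50 derived from the signal.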

CDC7 = CDC7 (Homo sapiens, UniProt O00311); test: CDC7 inhibition, biochemical chemiluminescence assay (Kinase Glo, IC50 determination)
Summary of the method: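 CDC7 enzyme preincubated with compound 10 min at ambient temperature, then ATP mix in Tris Base added; reaction 90 min at 24-27 °C. Remaining ATP quantified by Kinase Glo luminescence to give IC50.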

[1] = biological target: PIM (PIM-1, PIM-2, and/or PIM-3); test: PIM-1, PIM-2 and PIM-3 inhibition, biochemical chemiluminescence assays (Kinase Glo, IC50 determination); details: Table 1 activity class; PIM refers to PIM-1, PIM-2, and/or PIM-3; read-out: PIM IC50 (Activity B)
[2] = Table 1 activity class, symbol given only if active, read-out: CDC7 IC50 (Activity A)
[3] = compounds in Table 1, read-out: CDC7 IC50 value

Chain of CK2 (P68400 whole entry): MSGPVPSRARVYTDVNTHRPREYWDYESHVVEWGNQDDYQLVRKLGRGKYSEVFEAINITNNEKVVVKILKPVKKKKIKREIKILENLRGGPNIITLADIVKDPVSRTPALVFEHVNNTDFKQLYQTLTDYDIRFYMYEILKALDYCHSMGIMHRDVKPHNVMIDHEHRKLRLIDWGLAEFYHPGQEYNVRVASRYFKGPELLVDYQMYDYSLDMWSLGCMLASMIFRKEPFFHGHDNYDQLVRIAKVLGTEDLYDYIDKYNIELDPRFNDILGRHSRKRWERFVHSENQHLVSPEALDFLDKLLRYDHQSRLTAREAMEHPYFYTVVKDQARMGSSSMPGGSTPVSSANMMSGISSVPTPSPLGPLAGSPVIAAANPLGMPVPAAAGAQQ
Chain of CK2 (P67870 whole entry partner): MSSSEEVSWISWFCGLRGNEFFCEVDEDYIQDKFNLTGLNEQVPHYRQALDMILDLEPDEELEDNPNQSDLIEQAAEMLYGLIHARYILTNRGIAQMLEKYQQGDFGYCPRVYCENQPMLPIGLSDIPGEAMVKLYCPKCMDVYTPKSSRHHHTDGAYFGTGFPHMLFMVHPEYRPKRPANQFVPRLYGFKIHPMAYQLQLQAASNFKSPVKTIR
Chain of CDC7 (O00311 whole entry): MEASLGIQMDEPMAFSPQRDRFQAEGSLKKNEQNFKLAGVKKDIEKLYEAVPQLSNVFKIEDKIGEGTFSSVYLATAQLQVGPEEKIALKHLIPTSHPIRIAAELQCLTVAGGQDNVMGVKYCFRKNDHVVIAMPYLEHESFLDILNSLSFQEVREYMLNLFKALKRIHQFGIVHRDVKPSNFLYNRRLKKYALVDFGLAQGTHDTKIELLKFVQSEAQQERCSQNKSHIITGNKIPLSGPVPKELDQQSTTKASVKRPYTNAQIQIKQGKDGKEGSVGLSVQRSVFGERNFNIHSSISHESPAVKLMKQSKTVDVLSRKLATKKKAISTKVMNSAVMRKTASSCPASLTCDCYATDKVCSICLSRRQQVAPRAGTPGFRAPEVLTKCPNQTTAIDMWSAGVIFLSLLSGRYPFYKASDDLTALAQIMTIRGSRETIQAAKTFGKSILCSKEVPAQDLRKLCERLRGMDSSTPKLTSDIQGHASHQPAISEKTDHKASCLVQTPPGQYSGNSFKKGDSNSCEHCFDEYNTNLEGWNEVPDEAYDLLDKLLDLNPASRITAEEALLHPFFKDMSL
Chain of CDC7 (Q9UBU7 whole entry partner): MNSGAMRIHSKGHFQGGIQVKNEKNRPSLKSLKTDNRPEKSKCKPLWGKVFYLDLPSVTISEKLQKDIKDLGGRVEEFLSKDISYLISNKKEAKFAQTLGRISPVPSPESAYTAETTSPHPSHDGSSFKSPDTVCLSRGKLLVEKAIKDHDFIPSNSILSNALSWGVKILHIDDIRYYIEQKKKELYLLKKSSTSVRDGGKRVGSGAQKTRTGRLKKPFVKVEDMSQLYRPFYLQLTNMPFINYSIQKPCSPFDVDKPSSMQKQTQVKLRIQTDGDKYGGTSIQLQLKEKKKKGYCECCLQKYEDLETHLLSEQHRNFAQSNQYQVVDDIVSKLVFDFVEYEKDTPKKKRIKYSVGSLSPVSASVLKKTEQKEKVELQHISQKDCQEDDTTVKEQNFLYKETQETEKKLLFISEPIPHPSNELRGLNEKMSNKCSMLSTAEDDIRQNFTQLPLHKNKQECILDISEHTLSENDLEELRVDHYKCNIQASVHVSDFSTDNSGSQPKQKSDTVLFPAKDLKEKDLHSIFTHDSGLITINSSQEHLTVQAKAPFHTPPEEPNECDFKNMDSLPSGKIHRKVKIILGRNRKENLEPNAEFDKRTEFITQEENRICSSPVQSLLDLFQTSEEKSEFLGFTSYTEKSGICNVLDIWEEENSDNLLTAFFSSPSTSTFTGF

IC50 (CK2)	IC50 (CDC7; [2])	IC50 [1]	IC50 (CDC7; [3])	SMILES
< 10 µM	< 10 µM	< 10 µM		CC(C)COc1cccc2oc3c(=O)[nH]c(CN4CC[C@H](O)C4)nc3c12 [Compound 469, 2-{[(3S)-3-hydroxypyrrolidin-1-yl]methyl}-9-[(2-methylpropyl)oxy][1]benzofuro[3,2-d]pyrimidin-4(3H)-one]
< 10 µM	< 10 µM	< 10 µM	< 0.1 µM	CN1CCC(c2nc3c(oc4ccc(Br)cc43)c(=O)[nH]2)CC1 [Compound 185, 8-Bromo-2-(1-methylpiperidin-4-yl)[1]benzofuro[3,2-d]pyrimidin-4(3H)-one]
< 10 µM	< 10 µM	< 10 µM	< 0.1 µM	CSc1ccc2oc3c(=O)[nH]c(CN4CC[C@H](O)C4)nc3c2c1 [Compound 442, 2-{[(3S)-3-hydroxypyrrolidin-1-yl]methyl}-8-(methylthio)[1]benzofuro[3,2-d]pyrimidin-4(3H)-one]
< 10 µM	< 10 µM	< 10 µM	< 0.1 µM	C[C@H](N)c1nc2c(oc3ccc(Br)cc32)c(=O)[nH]1 [Compound 492, 2-[(1S)-1-aminoethyl]-8-bromo[1]benzofuro[3,2-d]pyrimidin-4(3H)-one]
< 10 µM	< 10 µM	< 10 µM	< 0.1 µM	CCOC(=O)C1CCN(Cc2nc3c(oc4ccc(Br)cc43)c(=O)[nH]2)C1 (centres unmarked) [Compound 269, Ethyl 1-[(8-bromo-4-oxo-3,4-dihydro[1]benzofuro[3,2-d]pyrimidin-2-yl)methyl]pyrrolidine-3-carboxylate]
< 10 µM	< 10 µM	< 10 µM	< 0.1 µM	O=c1[nH]c([C@@H]2C=CCN2)nc2c1oc1ccc(Br)cc12 [Compound 505, 8-bromo-2-[(2S)-2,5-dihydro-1H-pyrrol-2-yl][1]benzofuro[3,2-d]pyrimidin-4(3H)-one]
< 10 µM	< 10 µM	< 10 µM		O=c1[nH]c(-c2c(Cl)cncc2Cl)nc2c1oc1ccc(Br)cc12 [Compound 107, 8-bromo-2-(3,5-dichloropyridin-4-yl)[1]benzofuro[3,2-d]pyrimidin-4(3H)-one]
< 10 µM	< 10 µM	< 10 µM	< 0.1 µM	CS(=O)(=O)c1ccc(-c2nc3c(oc4ccc(Br)cc43)c(=O)[nH]2)c(Cl)c1 [Compound 128, 8-bromo-2-[2-chloro-4-(methylsulfonyl)phenyl][1]benzofuro[3,2-d]pyrimidin-4(3H)-one]
< 10 µM	< 10 µM	< 10 µM	< 0.1 µM	O=c1[nH]c(CNC2CC2)nc2c1oc1ccc(Br)cc12 [Compound 521, 8-bromo-2-[(cyclopropylamino)methyl][1]benzofuro[3,2-d]pyrimidin-4(3H)-one]
< 10 µM	< 10 µM	< 10 µM	< 0.1 µM	CNCc1nc2c(oc3ccc(Br)cc32)c(=O)[nH]1 [Compound 516, 8-bromo-2-[(methylamino)methyl][1]benzofuro[3,2-d]pyrimidin-4(3H)-one]
< 10 µM	< 10 µM	< 10 µM		NC(CCc1ccccc1)c1nc2c(oc3ccc(Br)cc32)c(=O)[nH]1 (stereo in doubt) [Compound 537, 2-[(1S)-1-amino-3-phenylpropyl]-8-bromo[1]benzofuro[3,2-d]pyrimidin-4(3H)-one]
< 10 µM	< 10 µM	< 10 µM		Cc1ccccc1-c1nc2c(oc3ccc(Br)cc32)c(=O)[nH]1 [Compound 60, 8-bromo-2-(2-methylphenyl)[1]benzofuro[3,2-d]pyrimidin-4(3H)-one]
< 10 µM	< 10 µM	< 10 µM	< 0.1 µM	O=C1CC[C@@H](c2nc3c(oc4ccc(Br)cc43)c(=O)[nH]2)N1 [Compound 523, 8-bromo-2-[(2S)-5-oxopyrrolidin-2-yl][1]benzofuro[3,2-d]pyrimidin-4(3H)-one]
< 10 µM	< 10 µM	< 10 µM	< 0.1 µM	O=c1[nH]c(CNCCc2ccncc2)nc2c1oc1ccc(Br)cc12 [Compound 166, 8-bromo-2-{[(2-pyridin-4-ylethyl)amino]methyl}[1]benzofuro[3,2-d]pyrimidin-4(3H)-one]
< 10 µM	< 10 µM	< 10 µM	< 0.1 µM	CC(C)[C@H](N)c1nc2c(oc3ccc(Br)cc32)c(=O)[nH]1 [Compound 540, 2-[(1S)-1-amino-2-methylpropyl]-8-bromo[1]benzofuro[3,2-d]pyrimidin-4(3H)-one]
< 10 µM	< 10 µM	< 10 µM		O=c1[nH]c(CN2CCC(F)(F)CC2)nc2c1oc1ccc(Br)cc12 [Compound 114, 8-bromo-2-[(4,4-difluoropiperidin-1-yl)methyl][1]benzofuro[3,2-d]pyrimidin-4(3H)-one]
< 10 µM	< 10 µM	< 10 µM		CN(C)CCC(=O)Nc1ccc(-c2nc3c(oc4ccc(Br)cc43)c(=O)[nH]2)c(Cl)c1 [Compound 135, N-[4-(8-bromo-4-oxo-3,4-dihydro[1]benzofuro[3,2-d]pyrimidin-2-yl)-3-chlorophenyl]-N′3′,N′3′-dimethyl-beta-alaninamide]
< 10 µM	< 10 µM	< 10 µM		CC(=O)Nc1ccc(-c2nc3c(oc4ccc(Br)cc43)c(=O)[nH]2)c(Cl)c1 [Compound 121, N-[4-(8-bromo-4-oxo-3,4-dihydro[1]benzofuro[3,2-d]pyrimidin-2-yl)-3-chlorophenyl]acetamide]
< 10 µM	< 10 µM	< 10 µM		O=C(Nc1ccc(-c2nc3c(oc4ccc(Br)cc43)c(=O)[nH]2)c(Cl)c1)c1ccccn1 [Compound 293, N-[4-(8-bromo-4-oxo-3,4-dihydro[1]benzofuro[3,2-d]pyrimidin-2-yl)-3-chlorophenyl]pyridine-2-carboxamide]
< 10 µM	< 10 µM	< 10 µM	< 0.1 µM	O=c1[nH]c(CNCCc2c[nH]cn2)nc2c1oc1ccc(Br)cc12 [Compound 259, 8-bromo-2-({[2-(1H-imidazol-4-yl)ethyl]amino}methyl)[1]benzofuro[3,2-d]pyrimidin-4(3H)-one]
< 10 µM	< 10 µM	< 10 µM	< 0.1 µM	CC(=O)N[C@@H]1CCN(Cc2nc3c(oc4ccc(Br)cc43)c(=O)[nH]2)C1 [Compound 364, N-{(3R)-1-[(8-bromo-4-oxo-3,4-dihydro[1]benzofuro[3,2-d]pyrimidin-2-yl)methyl]pyrrolidin-3-yl}acetamide]
< 10 µM	< 10 µM	< 10 µM		Nc1n[nH]c2cc(-c3nc4c(oc5ccc(Br)cc54)c(=O)[nH]3)c(Cl)cc12 [Compound 205, 2-(3-amino-5-chloro-1H-indazol-6-yl)-8-bromo[1]benzofuro[3,2-d]pyrimidin-4(3H)-one]
< 10 µM	< 10 µM	< 10 µM	< 0.1 µM	O=c1[nH]c(CN2CCC[C@H]2CO)nc2c1oc1ccc(Br)cc12 [Compound 366, 8-bromo-2-{[(2S)-2-(hydroxymethyl)pyrrolidin-1-yl]methyl}[1]benzofuro[3,2-d]pyrimidin-4(3H)-one]
< 10 µM	< 10 µM	< 10 µM	< 0.1 µM	NC(=O)C1CCN(Cc2nc3c(oc4ccc(Br)cc43)c(=O)[nH]2)C1 (centres unmarked) [Compound 270, 1-[(8-bromo-4-oxo-3,4-dihydro[1]benzofuro[3,2-d]pyrimidin-2-yl)methyl]pyrrolidine-3-carboxamide]
< 10 µM	< 10 µM	< 10 µM		CN1CCN(Cc2nc3c(oc4cc(O)c(Br)cc43)c(=O)[nH]2)CC1 [Compound 438, 8-bromo-7-hydroxy-2-[(4-methylpiperazin-1-yl)methyl][1]benzofuro[3,2-d]pyrimidin-4(3H)-one]
< 10 µM	< 10 µM	< 10 µM		COc1c(Br)ccc2oc3c(=O)[nH]c(CN4CC[C@H](O)C4)nc3c12 [Compound 447, 8-bromo-2-{[(3S)-3-hydroxypyrrolidin-1-yl]methyl}-9-(methyloxy)[1]benzofuro[3,2-d]pyrimidin-4(3H)-one]
< 10 µM	< 10 µM	< 10 µM		O=C(Nc1ccc(-c2nc3c(oc4ccc(Br)cc43)c(=O)[nH]2)c(Cl)c1)c1ccnc(Cl)c1 [Compound 276, N-[4-(8-bromo-4-oxo-3,4-dihydro[1]benzofuro[3,2-d]pyrimidin-2-yl)-3-chlorophenyl]-2-chloropyridine-4-carboxamide]
< 10 µM	< 10 µM	< 10 µM	< 0.1 µM	O=c1[nH]c(C2CCNCC2)nc2c1oc1ccc(Br)cc12 [Compound 157, 8-bromo-2-piperidin-4-yl[1]benzofuro[3,2-d]pyrimidin-4(3H)-one]
< 10 µM	< 10 µM	< 10 µM	< 0.1 µM	C[C@H](N)c1nc2c(oc3ccc(Cl)cc32)c(=O)[nH]1 [Compound 533, 2-[(1S)-1-aminoethyl]-8-chloro[1]benzofuro[3,2-d]pyrimidin-4(3H)-one]

SMILES	IC50 (CK2)	IC50 (CDC7; [2])	IC50 [1]	IC50 (CDC7; [3])
CN1[C@@H]2CC[C@H]1CN(Cc1nc3c(oc4ccc(Br)cc43)c(=O)[nH]1)CC2 [Compound 425, 8-bromo-2-{[(1S,6R)-9-methyl-3,9-diazabicyclo[4.2.1]non-3-yl]methyl}[1]benzofuro[3,2-d]pyrimidin-4(3H)-one]	< 10 µM	< 10 µM	< 10 µM	
